What was measured:
Assay type in all cases: cell-based, human
STAT3 [1] = assay: STAT3 dimerization (STAT3c non-reducing PAGE, HA/FLAG co-immunoprecipitation) in H1299 cells; conditions: 20 μM
Text: To eliminate the possibility that inS3-54 works by off-targeting to the SH2 domain, we tested if inS3-54 inhibits STAT3 dimerization using FLAG-STAT3c, which forms spontaneous homo-dimers via formation of intermolecular disulfide bond.
However, inS3-54 had no effect on production of dimeric STAT3c separated using non-reducing SDS-PAGE or non-denaturing PAGE (FIG. 6B) while S3I-201, a STAT3 inhibitor that binds to the SH2 domain, inhibited STAT3c dimerization (FIG. 6B). To confirm this observation, we performed a co-immunoprecipitation analysis of HA and FLAG-tagged STAT3.

[2] = test system: A549 and MDA-MB-231 cells; assay: Luminescence-based glutathione alkylation assay (GSH-Glo); conditions: 20 μM inS3-54 48 hours, 15 mM iodoacetamide 30 minutes
Text: FIG. 5. Effect of inS3-54 glutathione level. […] (***p<0.001).
To further eliminate the possibility that inS3-54 has alkylating activity, we performed luminescence-based glutathione alkylation assay.

STAT3 [3] = assay: STAT3-dependent luciferase reporter assay in MDA-MB-231-STAT3 stable cells; conditions: 20 μM; for Rel. luciferase activity (%) 1: experiment 1, relative to DMSO; for Rel. luciferase activity (%) 2: experiment 2, relative to DMSO; for Rel. luciferase activity (%) 3: experiment 3, relative to DMSO; for Rel. luciferase activity (%) Mean: mean of experiments, relative to DMSO
Procedure: FIG. 12. Identification of active inS3-54 analogues. (A) Effects of inS3-54 analogues on STAT3-dependent luciferase expression. MDA-MB-231 cells with stable STAT3-dependent luciferase expression were treated with DMSO control, 20 μM inSTAT3-54 or its analogues (A1-A79), followed by measurement of luciferase activity. (*p<0.05; **p<0.01; ***p<0.001).
MDA-MB-231-STAT3 stable cell line with high level of STAT3-dependent luciferase expression was exposed to candidate compounds at 20 μM in DMSO for 48 hours based on previous studies, and luciferase activity was measured using a luciferase assay kit (Promega, USA), following manufacturer's instructions. The final DMSO concentration in this and following assays was 0.1% (vol/vol).

Compound | production of dimeric STAT3c (STAT3 [1]; 24 hrs, non-reducing SDS-PAGE or non-denaturing PAGE) | co-immunoprecipitation between HA- and FLAG-tagged STAT3 (STAT3 [1]; H1299 cells) | glutathione level [2] | Rel. luciferase activity (%) 1 (STAT3 [3]) [%] | Rel. luciferase activity (%) 2 (STAT3 [3]) [%] | Rel. luciferase activity (%) 3 (STAT3 [3]) [%] | Rel. luciferase activity (%) Mean (STAT3 [3]) [%] | inhibition of luciferase expression compared to DMSO vehicle control (STAT3 [3]; significant = p value less than 0.05)
Cc1ccc(S(=O)(=O)OCC(=O)Nc2ccc(C(=O)O)c(O)c2)cc1 [Compound S3I-201, reference compound] | inhibited | inhibited |  |  |  |  |  | 
NC(=O)CI [iodoacetamide, reference compound] |  |  | significantly reduced |  |  |  |  | 
O=C1C(=Cc2ccc(-c3ccc([N+](=O)[O-])cc3)o2)C=C(c2ccccc2)N1c1ccccc1Cl [Compound A14] |  |  |  | 140.4 | 129.3 | 72.3 | 114.0 | 
O=C(O)c1cccc(N2C(=O)C(=Cc3ccc(-c4cc(Cl)ccc4Cl)o3)C=C2c2ccccc2)c1 [Compound A2] |  |  |  | 120.3 | 107.5 | 114.1 | 114.0 | 
O=C1C(=Cc2ccc([N+](=O)[O-])cc2)C=C(c2ccccc2)N1Cc1ccccc1 [Compound A36] |  |  |  | 46.4 | 87.4 | 66.3 | 66.7 | significantly inhibited
COC(=O)c1ccc(N2C(=O)C(=Cc3ccc(OC)cc3)C=C2c2ccccc2)cc1 [Compound A54] |  |  |  | 77.8 | 100.8 | 41.7 | 73.5 | 
COC(=O)c1cccc(N2C(=O)C(=Cc3ccc(OC)cc3)C=C2c2ccccc2)c1 [Compound A50] |  |  |  | 168.6 | 187.0 | 153.6 | 169.7 | 
CCOC(=O)c1ccc(N2C(=O)C(=Cc3ccc(Cl)cc3)C=C2c2ccccc2)cc1 [Compound A74] |  |  |  | 65.9 | 105.7 | 74.5 | 82.0 | 
O=C1C(=Cc2ccc([N+](=O)[O-])cc2)C=C(c2ccccc2)N1c1ccc(Cl)cc1 [Compound A31] |  |  |  | 122.8 | 124.5 | 49.9 | 99.1 | 
Cc1ccc(N2C(=O)C(=Cc3ccc(-c4cc(Cl)ccc4Cl)o3)C=C2c2ccccc2)cc1[N+](=O)[O-] [Compound A3] |  |  |  | 116.7 | 104.0 | 101.3 | 107.3 | 
